Results published in patent publication US11053204B2, “Pyrimidinyloxy benzene derivatives as herbicides” (FMC Corporation, priority 2015, dated 2021).

How the values were obtained:
Assay type in all cases: in vivo
[1] = tested on: pigweed (Amaranthus retroflexus); assay: Test A postemergence, visual injury rating; details: 0 to 100 scale, 0 is no effect, 100 is complete control, approximately 10 days
Summary of the method: (§1)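 Greenhouse pot test, loam/sand soil. Formulation: non-phytotoxic solvent mix plus surfactant. Pre: directed spray onto soil after sowing. Post: plants at 1–2 leaf, 2–10 cm. Rated visually vs untreated controls at ~10 d, 0 (no effect) to 100 (complete control).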

[2] = tested on: giant foxtail (Setaria faberii); assay: Test A postemergence, visual injury rating; details: 0 to 100 scale, 0 is no effect, 100 is complete control, approximately 10 days
Summary of the method: as §1

[3] = tested on: galium (catchweed bedstraw, Galium aparine); assay: Test A postemergence, visual injury rating; details: 0 to 100 scale, 0 is no effect, 100 is complete control, approximately 10 days
Summary of the method: as §1

[4] = tested on: wheat (Triticum aestivum); assay: Test A postemergence, visual injury rating; details: 0 to 100 scale, 0 is no effect, 100 is complete control, approximately 10 days
Summary of the method: as §1

corn (Zea mays) = assay: Test A postemergence, visual injury rating; details: 0 to 100 scale, 0 is no effect, 100 is complete control, approximately 10 days
Summary of the method: as §1

[5] = tested on: barnyardgrass (Echinochloa crus-galli); assay: Test A postemergence, visual injury rating; details: 0 to 100 scale, 0 is no effect, 100 is complete control, approximately 10 days
Summary of the method: as §1

kochia (Kochia scoparia) [6] = assay: Test A postemergence, visual injury rating; details: 0 to 100 scale, 0 is no effect, 100 is complete control, approximately 10 days
Summary of the method: as §1

[7] = tested on: Italian ryegrass (Lolium multiflorum); assay: Test A postemergence, visual injury rating; details: 0 to 100 scale, 0 is no effect, 100 is complete control, approximately 10 days
Summary of the method: as §1

[8] = tested on: ragweed (common ragweed, Ambrosia elatior); assay: Test A postemergence, visual injury rating; details: 0 to 100 scale, 0 is no effect, 100 is complete control, approximately 10 days
Summary of the method: as §1

[9] = tested on: blackgrass (Alopecurus myosuroides); assay: Test A postemergence, visual injury rating; details: 0 to 100 scale, 0 is no effect, 100 is complete control, approximately 10 days
Summary of the method: as §1

[10] = tested on: pigweed (Amaranthus retroflexus); assay: Test A preemergence, visual injury rating
Summary of the method: as §1

[11] = tested on: giant foxtail (Setaria faberii); assay: Test A preemergence, visual injury rating
Summary of the method: as §1

[12] = tested on: barnyardgrass (Echinochloa crus-galli); assay: Test A preemergence, visual injury rating; details: for Plant response rating, Barnyardgrass: 31 g ai/ha, 0 to 100 scale, 0 no effect, 100 complete control; for Barnyardgrass plant response rating: 125 g ai/ha, 0 to 100 scale (0 no effect, 100 complete control)
Summary of the method: as §1

kochia (Kochia scoparia) [13] = assay: Test A preemergence, visual injury rating
Summary of the method: as §1

[14] = tested on: Italian ryegrass (Lolium multiflorum); assay: Test A preemergence, visual injury rating
Summary of the method: as §1

[15] = tested on: ragweed (common ragweed, Ambrosia elatior); assay: Test A preemergence, visual injury rating
Summary of the method: as §1

rice (Oryza sativa) = assay: Test B flooded paddy test, plant response rating; details: 250 g ai/ha; Flood; scale of 0 to 100 where 0 is no effect and 100 is complete control; 13 to 15 days
Summary of the method: (§2)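 Compound was added to standing water 3 cm above soil, flood maintained, and plants held in a greenhouse before visual scoring against controls at 13 to 15 days.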

[16] = tested on: barnyardgrass (Echinochloa crus-galli); assay: Test B flooded paddy test, plant response rating; details: 250 g ai/ha; Flood; scale of 0 to 100 where 0 is no effect and 100 is complete control; 13 to 15 days
Summary of the method: as §2

[17] = tested on: sedge, umbrella (small-flower umbrella sedge, Cyperus difformis); assay: Test B flooded paddy test, plant response rating; details: 250 g ai/ha; Flood; scale of 0 to 100 where 0 is no effect and 100 is complete control; 13 to 15 days
Summary of the method: as §2

[18] = tested on: ducksalad (Heteranthera limosa); assay: Test B flooded paddy test, plant response rating; details: 250 g ai/ha; Flood; scale of 0 to 100 where 0 is no effect and 100 is complete control; 13 to 15 days
Summary of the method: as §2

[19] = 31 g ai/ha, 0 to 100 scale, 0 no effect, 100 complete control
[20] = 125 g ai/ha, 0 to 100 scale (0 no effect, 100 complete control)

Compound	Pigweed plant response rating ([1]; 31 g ai/ha)	Pigweed plant response rating ([1]; 125 g ai/ha)	Foxtail, Giant plant response rating ([2]; 31 g ai/ha)	Foxtail, Giant plant response rating ([2]; 125 g ai/ha)	Galium plant response rating ([3]; 31 g ai/ha)	Galium plant response rating ([3]; 125 g ai/ha)	Wheat plant response rating ([4]; 31 g ai/ha)	Wheat plant response rating ([4]; 125 g ai/ha)	Corn plant response rating (corn (Zea mays); 31 g ai/ha)	Corn plant response rating (corn (Zea mays); 125 g ai/ha)	Barnyardgrass plant response rating ([5]; 31 g ai/ha)	Barnyardgrass plant response rating ([5]; 125 g ai/ha)	Kochia plant response rating (kochia (Kochia scoparia) [6]; 31 g ai/ha)	Kochia plant response rating (kochia (Kochia scoparia) [6]; 125 g ai/ha)	Ryegrass, Italian plant response rating ([7]; 31 g ai/ha)	Ryegrass, Italian plant response rating ([7]; 125 g ai/ha)	Ragweed plant response rating ([8]; 31 g ai/ha)	Ragweed plant response rating ([8]; 125 g ai/ha)	Blackgrass plant response rating ([9]; 31 g ai/ha)	Blackgrass plant response rating ([9]; 125 g ai/ha)	other results
Cc1cccc(Oc2ncc(Cl)cn2)c1C(=O)OCCC(F)(F)F [Compound 99]	10	40	50	90	20	70	0	30	0	50	30	80	20	40	0	50	10	30	30	80	Plant response rating, Pigweed [10, 19]: 50; Plant response rating, Pigweed [10, 20]: 90; Plant response rating, Foxtail, Giant [11, 19]: 90; Plant response rating, Foxtail, Giant [11, 20]: 100; Plant response rating, Barnyardgrass [12]: 70; Barnyardgrass plant response rating [12]: 100; Plant response rating, Kochia (kochia (Kochia scoparia) [13]; [19]): 40; Plant response rating, Kochia (kochia (Kochia scoparia) [13]; [20]): 80; Plant response rating, Ryegrass, Italian [14, 19]: 0; Plant response rating, Ryegrass, Italian [14, 20]: 30; Plant response rating, Ragweed [15, 19]: 0; Plant response rating, Ragweed [15, 20]: 10; Plant response rating, Rice (rice (Oryza sativa)): 40; Plant response rating, Barnyardgrass [16]: 60; Plant response rating, Sedge, Umbrella [17]: 90; Plant response rating, Ducksalad [18]: 100
CCCCOC(=O)c1c(Br)cccc1Oc1ncc(Cl)cn1 [Compound 100]	30	70	20	70	20	70	0	0	10	10	10	50	60	80	0	20	0	0	0	40	Plant response rating, Pigweed [10, 19]: 0; Plant response rating, Pigweed [10, 20]: 60; Plant response rating, Foxtail, Giant [11, 19]: 50; Plant response rating, Foxtail, Giant [11, 20]: 100; Plant response rating, Barnyardgrass [12]: 40; Barnyardgrass plant response rating [12]: 100; Plant response rating, Kochia (kochia (Kochia scoparia) [13]; [19]): 0; Plant response rating, Kochia (kochia (Kochia scoparia) [13]; [20]): 0; Plant response rating, Ryegrass, Italian [14, 19]: 0; Plant response rating, Ryegrass, Italian [14, 20]: 0; Plant response rating, Ragweed [15, 19]: 0; Plant response rating, Ragweed [15, 20]: 0; Plant response rating, Rice (rice (Oryza sativa)): 0; Plant response rating, Barnyardgrass [16]: 40; Plant response rating, Sedge, Umbrella [17]: 70; Plant response rating, Ducksalad [18]: 90
CCCCCOC(=O)c1c(Br)cccc1Oc1ncc(Cl)cn1 [Compound 101]	20	60	0	20	10	40	0	0	0	0	10	20	0	20	0	10	0	0	0	0	Plant response rating, Pigweed [10, 19]: 0; Plant response rating, Pigweed [10, 20]: 0; Plant response rating, Foxtail, Giant [11, 19]: 0; Plant response rating, Foxtail, Giant [11, 20]: 40; Plant response rating, Barnyardgrass [12]: 0; Barnyardgrass plant response rating [12]: 10; Plant response rating, Kochia (kochia (Kochia scoparia) [13]; [19]): 0; Plant response rating, Kochia (kochia (Kochia scoparia) [13]; [20]): 0; Plant response rating, Ryegrass, Italian [14, 19]: 0; Plant response rating, Ryegrass, Italian [14, 20]: 0; Plant response rating, Ragweed [15, 19]: 0; Plant response rating, Ragweed [15, 20]: 0; Plant response rating, Rice (rice (Oryza sativa)): 0; Plant response rating, Barnyardgrass [16]: 0; Plant response rating, Sedge, Umbrella [17]: 0; Plant response rating, Ducksalad [18]: 0
O=C(OCC(F)(F)C(F)F)c1c(Br)cccc1Oc1ncc(Cl)cn1 [Compound 103]	90	100	10	70	70	100	0	0	20	20	0	30	70	100	0	0	0	0	0	10	Plant response rating, Pigweed [10, 19]: 40; Plant response rating, Pigweed [10, 20]: 100; Plant response rating, Foxtail, Giant [11, 19]: 10; Plant response rating, Foxtail, Giant [11, 20]: 60; Plant response rating, Barnyardgrass [12]: 0; Barnyardgrass plant response rating [12]: 50; Plant response rating, Kochia (kochia (Kochia scoparia) [13]; [19]): 0; Plant response rating, Kochia (kochia (Kochia scoparia) [13]; [20]): 70; Plant response rating, Ryegrass, Italian [14, 19]: 0; Plant response rating, Ryegrass, Italian [14, 20]: 0; Plant response rating, Ragweed [15, 19]: 0; Plant response rating, Ragweed [15, 20]: 0; Plant response rating, Rice (rice (Oryza sativa)): 20; Plant response rating, Barnyardgrass [16]: 0; Plant response rating, Sedge, Umbrella [17]: 95; Plant response rating, Ducksalad [18]: 95
CC(=NOC(C)C)c1c(Cl)cccc1Oc1ncc(Cl)cn1 [Compound 104]	10	40	0	10	10	30	0	0	0	10	0	0	0	10	0	0	0	0	0	20	Plant response rating, Pigweed [10, 19]: 0; Plant response rating, Pigweed [10, 20]: 40; Plant response rating, Foxtail, Giant [11, 19]: 0; Plant response rating, Foxtail, Giant [11, 20]: 40; Plant response rating, Barnyardgrass [12]: 0; Barnyardgrass plant response rating [12]: 30; Plant response rating, Kochia (kochia (Kochia scoparia) [13]; [19]): 0; Plant response rating, Kochia (kochia (Kochia scoparia) [13]; [20]): 0; Plant response rating, Ryegrass, Italian [14, 19]: 0; Plant response rating, Ryegrass, Italian [14, 20]: 0; Plant response rating, Ragweed [15, 19]: 0; Plant response rating, Ragweed [15, 20]: 0; Plant response rating, Rice (rice (Oryza sativa)): 0; Plant response rating, Barnyardgrass [16]: 0; Plant response rating, Sedge, Umbrella [17]: 75; Plant response rating, Ducksalad [18]: 75
